Data from patent US6664256B1, “Phenylpyridazine compounds and medicines containing the same” (Kowa Co., Ltd., priority 2000, dated 2003).

Experiments:
[1] = system: interleukin-1β production; experiment: Inhibitory activity against interleukin-1β production (LPS-stimulated HL-60 cells, ELISA); format: cell-based; conditions: Homo sapiens, 72 h, lipopolysaccharide 10 μg/ml, culturing for 3 days, interleukin-1β determined by ELISA, read-out: IL-β (IC50 μM)
Protocol: Experiment 1 (Inhibitory Activity against Interleukin-1β Production)
Inhibitory activity of the compounds of the present invention, which are represented by the formula (I), against interleukin-1β production was tested by the following experiment:
HL-60 cells were cultured for 4 days until confluence on RPMI 1640 medium with 10% fetal bovine serum (FBS) added thereto. The medium was centrifuged. The supernatant was discarded, and the cells were then suspended at 1×10^6 cells/ml on RPMI 1640 medium with 3% FBS, and lipopolysaccharide was added to give a final concentration of 10 μg/ml . The culture was inoculated at 1 ml/well to a 24-well plate. A test compound was added at 1 μl/well, followed by culturing for 3 days. Three days later, the amount of interleukin-1β in each culture was determined by ELISA. Each IC50 value was determined by a comparison in yield with a control to which no test compound was added.

IC50 [1] [µM]	melting point [°C]	SMILES
32.1		COc1ccc(-c2cc(Cl)nnc2-c2ccc(OC)cc2)cc1 [Comp. Comp'd 1, reference compound]
4.16		CCOC(=O)c1c(Cl)nnc(-c2ccc(OC)cc2)c1-c1ccc(OC)cc1 [Comp. Comp'd 2, reference compound]
0.1		COc1ccc(-c2cc(Oc3ccccc3)nnc2-c2ccc(OC)cc2)cc1 [Example 3, 3,4-bis(4-methoxyphenyl)-6-(phenoxy)pyridazine]
0.12		COc1ccc(-c2cc(Oc3cccc(F)c3F)nnc2-c2ccc(OC)cc2)cc1 [Example 5, 3,4-bis(4-methoxyphenyl)-6-(2,3-difluorophenoxy)pyridazine]
0.18		COc1ccc(-c2cc(Oc3cc(F)ccc3F)nnc2-c2ccc(OC)cc2)cc1 [Example 7, 3,4-bis(4-methoxyphenyl)-6-(2,5-difluorophenoxy)pyridazine]
0.35		COc1ccc(-c2cc(Oc3c(F)cccc3F)nnc2-c2ccc(OC)cc2)cc1 [Example 8, 3,4-bis(4-methoxyphenyl)-6-(2,6-difluorophenoxy)pyridazine]
0.46		COc1ccc(-c2cc(Oc3ccc(F)c(F)c3)nnc2-c2ccc(OC)cc2)cc1 [Example 9, 3,4-bis(4-methoxyphenyl)-6-(3,4-difluorophenoxy)pyridazine]
0.19		COc1ccc(-c2cc(Oc3c(F)c(F)cc(F)c3F)nnc2-c2ccc(OC)cc2)cc1 [Example 11, 3,4-bis(4-methoxyphenyl)-6-(2,3,5,6-tetrafluorophenoxy)pyridazine]
0.04		COc1ccc(-c2cc(Oc3c(F)c(F)c(F)c(F)c3F)nnc2-c2ccc(OC)cc2)cc1 [Example 12, 3,4-bis(4-methoxyphenyl)-6(2,3,4,5,6-pentafluorophenoxy)pyridazine]
0.2		COc1ccc(-c2cc(Sc3cc(Cl)c(Cl)c(Cl)c3)nnc2-c2ccc(OC)cc2)cc1 [Example 14, 3,4-bis(4-methoxyphenyl)-6-(3,4,5-trichlorophenylthio)pyridazine]
0.45		COc1ccc(Oc2cc(-c3ccc(OC)cc3)c(-c3ccc(OC)cc3)nn2)cc1 [Example 15, 3,4-bis(4-methoxyphenyl)-6-(4-methoxyphenoxy)pyridazine]
0.63		COc1ccc(-c2cc(Oc3ccc([N+](=O)[O-])cc3)nnc2-c2ccc(OC)cc2)cc1 [Example 17, 3,4-bis(4-methoxyphenyl)-6-(4-nitrophenoxy)pyridazine]
0.15		COc1ccc(-c2cc(Oc3ccccc3C#N)nnc2-c2ccc(OC)cc2)cc1 [Example 18, 3,4-bis(4-methoxyphenyl)-6-(2-cyanophenoxy)pyridazine]
0.16		COc1ccc(-c2cc(Oc3cccc(C#N)c3)nnc2-c2ccc(OC)cc2)cc1 [Example 19, 3,4-bis(4-methoxyphenyl)-6-(3-cyanophenoxy)pyridazine]
0.96		COc1ccc(-c2nnc(Oc3ccc(F)cc3F)cc2-c2ccncc2)cc1 [Example 23, 6-(2,4-difluorophenoxy)-3-(4-methoxyphenyl)-4-(4-pyridyl)pyridazine]
0.32	155.2 to 156.6	COc1ccc(-c2nnc(Oc3cccc(F)c3F)cc2-c2ccccc2)cc1 [Example 25, 6-(2,3-difluorophenoxy)-3-(4-methoxyphenyl)-4-phenylpyridazine]

IC50 [1] [µM]	melting point [°C]	SMILES
0.31	169 to 169.9	COc1ccc(-c2nnc(Oc3ccc(F)cc3F)cc2-c2ccccc2)cc1 [Example 26, 6-(2,4-difluorophenoxy)-3-(4-methoxyphenyl)-4-phenylpyridazine]
0.01		COc1ccc(-c2nnc(Oc3c(F)c(F)c(F)c(F)c3F)cc2-c2ccccc2)cc1 [Example 27, 3-(4-methoxyphenyl)-6-(2,3,4,5,6-pentafluorophenoxy)-4-phenylpyridazine]
	130.9 to 131.4	CSc1ccc(-c2nnc(Cl)cc2-c2ccc(F)cc2)cc1 [Example 28, 6-chloro-4-(4-fluorophenyl)-3-[4-(methylthio)phenyl]pyridazine]
	140.6 to 143.4	CSc1ccc(-c2nnc(Oc3ccc(F)cc3F)cc2-c2ccc(F)cc2)cc1 [Example 29, 6-(2,4-difluorophenoxy)-4-(4-fluorophenyl)-3-[4-(methylthio)phenyl]pyridazine]
	145 to 145.8	CSc1ccc(-c2nnc(Cl)cc2-c2ccc(Cl)cc2)cc1 [Example 31, 6-chloro-4-(4-chlorophenyl)-3-[4-(methylthio)phenyl]pyridazine]
0.94	53.3 to 56.2	CSc1ccc(-c2nnc(Sc3ccccc3)cc2-c2ccc(Sc3ccccc3)cc2)cc1 [Example 32, 3-[4-(methylthio)phenyl]-6-phenylthio-4-[4-(phenylthio)phenyl]pyridazine]
0.26	163.2 to 164	CSc1ccc(-c2nnc(Oc3ccc(F)cc3F)cc2-c2ccc(Cl)cc2)cc1 [Example 33, 4-(4-chlorophenyl)-6-(2,4-difluorophenoxy)-3-[4-(methylthio)phenyl]pyridazine]
	115.2 to 117.3	CS(=O)(=O)c1ccc(-c2nnc(Oc3ccc(F)cc3F)cc2-c2ccc(Cl)cc2)cc1 [Example 34, 4-(4-chlorophenyl)-6-(2,4-difluorophenoxy)-3-[4-(methylsulfonyl)phenyl]pyridazine]
	125.4 to 126.3	COc1ccc(-c2cc(NCc3ccccc3)nnc2-c2ccc(OC)cc2)cc1 [Example 41, 6-benzylamino-3,4-bis(4-methoxyphenyl)pyridazine]
	165.8 to 169.5	CSc1ccc(-c2nnc(SC)cc2-c2ccc(F)cc2)cc1 [Example 46, 4-(4-fluorophenyl)-6-methylthio-3-[4-(methylthio)phenyl]pyridazine]
	205 to 209	Cc1cc(-c2ccc(Cl)cc2)c(-c2ccc(S(C)(=O)=O)cc2)nn1 [Example 50, 4-(4-chlorophenyl)-6-methyl-3-[4-(methylsulfonyl)phenyl]pyridazine]
0.09		COc1ccc(-c2cc(C#N)nnc2-c2ccc(OC)cc2)cc1 [Example 51, 3,4-bis-(4-methoxyphenyl)-6-cyanopyridazine]
	157.7 to 158.3	CSc1ccc(-c2nnc(Cl)cc2-c2ccccc2)cc1 [Example 59, 6-chloro-3-[4-(methylthio)phenyl]-4-phenylpyridazine]
	189.6 to 190.5	CS(=O)(=O)c1ccc(-c2nnc(Cl)cc2-c2ccc(Cl)cc2)cc1 [Example 60, 6-chloro-4-(4-chlorophenyl)-3-[4-(methylsulfonyl)phenyl]pyridazine]
0.68		COc1ccc(-c2nnc(C#N)cc2-c2ccccc2)cc1 [Example 66, 6-cyano-3-(4-methoxyphenyl)-4-phenylpyridazine]
